These are literature values, as cited in US8759403B2, “Curcuminoids and its metabolites for the application in allergic ocular/nasal conditions” (Laila Pharmaceutical Pvt. Ltd., priority 2009, dated 2014).

One series concerns guinea pigs. The note with it: 20 mg/kg body weight.
For the next series, the system named is murine model of allergy. Conditions: mouse, in vivo.

Turning to `COc1cc(/C=C/C(=O)CC(=O)/C=C/c2ccc(O)c(OC)c2)ccc1O` [curcumin], the airway hyper reactivity entry in the series with guinea pigs (p<0.0043) was “significantly inhibits”. The OVA-induced airway constriction entry with guinea pigs (p<0.0399) was “significantly inhibits”. In the series on murine model of allergy, the “allergic response in treated animals” value was “marked inhibition of allergic response”. The “histamine release from mast cells” value in the series with mast cells is reported as “inhibitory effect”.
